# pIC50: −log10 of the molar value.
# Columns and labels:
# PTGER2 (EP2) = PTGER2 (EP2) (Homo sapiens (Human), UniProt P43116); experiment: hEP2 b-arrestin assay (PathHunter HEK 293 PTGER2 b-arrestin cells); assay type: cell-based
# Text: (§1) The assay is using the PathHunter™ HEK 293 PTGER2 and PTGER4 b-arrestin cell lines from DiscoverX. The system is based on the Enzyme Fragment Complementation Technology. Two complementing fragments of the b-galactosidase enzyme are expressed within stably transfected cells. The larger portion of b-gal, termed EA for Enzyme Acceptor, is fused to the C-terminus of b-arrestin 2. The smaller fragment, termed ProLink™ tag, is fused to PTGER2 (EP2) or PTRGER4 (EP4) at the C-terminus. Upon activation, b-arrestin is recruited which forces the interaction of ProLink and EA, allowing complementation of the two fragments of b-gal and the formation of a functional enzyme which is capable of hydrolysing the substrate and generating a chemiluminescent signal.
# (§2) 5000 cells per well of a 384 well plate (white with white bottom Greiner 781080) are seeded in 20 ul per well of GM. Plate is incubated at 37° C., 5% C02 for 24 hours.
# Plate is pre-incubated 15 minutes at 37° C. Then five microliters of PGE2 (final conc. 5 μM) are transferred into the assay plate. Plate is incubated 120 minutes at 37° C.
# (§3) Twelve μl of reagent are transferred to the assay plate and incubate for 1 hour at room temperature in the dark. Luminescence counts are read on a BMG Fluostar Optima reader according to manufacturer's instructions. For each compound concentration calculate of the percentage of activity compared to DMSO control value as average±STDEV. (each concentration is measured in duplicate)
# PTRGER4 (EP4) = PTRGER4 (EP4) (Homo sapiens (Human), UniProt P35408); experiment: hEP4 b-arrestin assay (PathHunter HEK 293 PTGER4 b-arrestin cells); assay type: cell-based
# PTRGER4 (EP4), sequence (P35408 whole entry, looked up): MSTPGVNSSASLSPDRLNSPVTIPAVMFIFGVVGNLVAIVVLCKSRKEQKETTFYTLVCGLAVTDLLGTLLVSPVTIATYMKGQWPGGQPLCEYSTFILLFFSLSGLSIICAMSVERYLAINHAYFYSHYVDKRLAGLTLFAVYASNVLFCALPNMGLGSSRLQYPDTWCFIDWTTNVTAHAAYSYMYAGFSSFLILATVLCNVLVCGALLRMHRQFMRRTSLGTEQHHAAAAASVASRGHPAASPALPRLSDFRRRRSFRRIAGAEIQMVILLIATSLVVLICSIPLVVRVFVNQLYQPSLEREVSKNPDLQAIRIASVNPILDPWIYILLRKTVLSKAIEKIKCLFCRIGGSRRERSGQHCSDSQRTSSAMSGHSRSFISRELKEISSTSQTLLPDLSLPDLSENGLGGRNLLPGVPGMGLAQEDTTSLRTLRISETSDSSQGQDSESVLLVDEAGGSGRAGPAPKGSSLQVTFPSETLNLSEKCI
# Text: as §1, §2
# Plate is pre-incubated 15 minutes at 37° C. Then five microliters of PGE2 (final conc. 20 nM) are transferred into the assay plate. Plate is incubated 120 minutes at 37° C.
# as §3, with “average±STDEV.” for “average±STDEV. (each concentration is measured in duplicate)”
# [1] = hEP2 b-arrestin assay (values without asterisk)
# [2] = hEP4 b-arrestin assay (values without asterisk)
# [3] = antagonistic activity on hEP2, mean where measured multiple times
# [4] = antagonistic activity on hEP4, mean where measured multiple times
# PTGER2 (EP2), sequence (P43116 whole entry, the tested form may be a part): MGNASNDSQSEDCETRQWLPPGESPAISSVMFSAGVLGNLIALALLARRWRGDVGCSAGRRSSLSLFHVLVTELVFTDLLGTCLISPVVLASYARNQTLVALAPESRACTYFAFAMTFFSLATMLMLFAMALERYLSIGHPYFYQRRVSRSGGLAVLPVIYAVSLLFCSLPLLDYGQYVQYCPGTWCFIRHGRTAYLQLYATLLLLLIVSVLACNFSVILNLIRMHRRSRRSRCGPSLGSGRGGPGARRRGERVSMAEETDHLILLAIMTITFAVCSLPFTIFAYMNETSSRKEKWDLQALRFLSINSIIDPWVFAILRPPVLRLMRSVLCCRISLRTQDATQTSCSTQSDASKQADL
pIC50 (PTGER2 (EP2); [1]),pIC50 (PTRGER4 (EP4); [2]),pIC50 (PTGER2 (EP2); [3]),pIC50 (PTRGER4 (EP4); [4]),Compound
7.42,7.54,–,–,"COc1cc(F)cc2c1cc(C#N)n2CCNc1cc(-c2ccc(C(=O)O)c(SC(C)C)c2)ncn1 [Example 938, 4-{6-[2-(2-Cyano-6-fluoro-4-methoxy-indol-1-yl)-ethylamino]-pyrimidin-4-yl}-2-isopropylsulfanyl-benzoic acid]"
–,–,7.92,6.65,CCC1NC(=O)c2ccc(-c3cc(NCCn4c(C)cc5c(OC)cccc54)ncn3)cc21 (racemic) [compound 196]
8.15,8.00,–,–,"COc1ccc(F)c2c1cc(C#N)n2CCNc1cc(-c2cc(F)c(C(=O)O)s2)ncn1 [Example 806, 5-{6-[2-(2-Cyano-7-fluoro-4-methoxy-indol-1-yl)-ethylamino]-pyrimidin-4-yl}-3-fluoro-thiophene-2-carboxylic acid]"
–,–,7.57,6.21,"Cc1ccc(F)c2c1cc(C)n2CCNc1cc(-c2ccc(C(N)=O)cc2)ncn1 [compound 25, 4-{6-[2-(7-Fluoro-2,4-dimethyl-indol-1-yl)-ethylamino]-pyrimidin-4-yl}-benzamide]"
8.15,6.67,–,–,"COc1cc(F)cc2c1cc(C)n2CCNc1cc(-c2ccc(C(=O)O)c(OCC(F)(F)F)c2)ncn1 [Example 845, 4-{6-[2-(6-Fluoro-4-methoxy-2-methyl-indol-1-yl)-ethylamino]-pyrimidin-4-yl}-2-(2,2,2-trifluoro-ethoxy)-benzoic acid]"
8.70,8.10,–,–,"COc1cc(Cl)cc2c1cc(C)n2CCNc1cc(-c2cc(OC(C)C)c(C(=O)O)s2)ncn1 [Example 869, 5-{6-[2-(6-Chloro-4-methoxy-2-methyl-indol-1-yl)-ethylamino]-pyrimidin-4-yl}-3-isopropoxy-thiophene-2-carboxylic acid]"
7.41,7.17,–,–,"COc1ccc(F)c2c1cc(C#N)n2CCNc1cc(-c2ccc3c(=O)n(C)[nH]c3c2)ncn1 [Example 920, 7-Fluoro-4-methoxy-1-{2-[6-(2-methyl-3-oxo-2,3-dihydro-1H-indazol-6-yl)-pyrimidin-4-ylamino]-ethyl}-1H-indole-2-carbonitrile]"
7.80,7.51,–,–,"CCOc1cc(-c2cc(NCCn3c(C#N)cc4c(OC)ccc(F)c43)ncn2)ccc1C(=O)C(=O)O [Example 934, (4-{6-[2-(2-Cyano-7-fluoro-4-methoxy-indol-1-yl)-ethylamino]-pyrimidin-4-yl}-2-ethoxy-phenyl)-oxo-acetic acid]"
7.72,7.44,–,–,"COc1ccc(F)c2c1cc(C)n2CCNc1cc(-c2cc(C(F)(F)F)c(C(=N)NO)s2)ncn1 [Example 1061, 5-{6-[2-(7-Fluoro-4-methoxy-2-methyl-indol-1-yl)-ethylamino]-pyrimidin-4-yl}-N-hydroxy-3-trifluoromethyl-thiophene-2-carboxamidine]"

# Second part, the molecule before the results:
Compound,pIC50 (PTGER2 (EP2); [1]),pIC50 (PTRGER4 (EP4); [2]),pIC50 (PTGER2 (EP2); [3]),pIC50 (PTRGER4 (EP4); [4])
"COc1ccc(F)c2c1cc(C)n2CCNc1cc(-c2ccc3c(c2)CC(=O)N3)ncn1 [compound 91, 5-{6-[2-(7-Fluoro-4-methoxy-2-methyl-indol-1-yl)-ethylamino]-pyrimidin-4-yl}-1,3-dihydro-indol-2-one]",–,–,7.49,6.84
"COc1ccc(F)c2c1cc(C#N)n2CCNc1cc(-c2ccc(O)c(Cl)c2)ncn1 [Example 867, 1-{2-[6-(3-Chloro-4-hydroxy-phenyl)-pyrimidin-4-ylamino]-ethyl}-7-fluoro-4-methoxy-1H-indole-2-carbonitrile]",8.10,8.22,–,–
"COc1ccc(F)c2c1cc(C)n2CCNc1cc(-c2ccc3[nH]c(C)nc3c2)ncn1 [compound 81, [2-(7-Fluoro-4-methoxy-2-methyl-indol-1-yl)-ethyl]-[6-(2-methyl-1H-benzoimidazol-5-yl)-pyrimidin-4-yl]-amine]",–,–,7.36,7.07
"COc1ccc(F)c2c1cc(C#N)n2CCNc1cc(-c2cnc3c(ccn3C)c2)ncn1 [Example 980, 7-Fluoro-4-methoxy-1-{2-[6-(1-methyl-1H-pyrrolo[2,3-b]pyridin-5-yl)-pyrimidin-4-ylamino]-ethyl}-1H-indole-2-carbonitrile]",7.68,7.92,–,–
Cc1ccc(F)c2c1cc(C)n2CCNc1cc(-c2ccc(S(N)(=O)=O)c(C(F)(F)F)c2)ncn1 [compound 379],–,–,7.20,6.45
"COc1cccc2c1cc(C)n2CCNc1cc(-c2ccc(-c3nc(N)sc3C)cc2)ncn1 [compound 311, {6-[4-(2-Amino-5-methyl-thiazol-4-yl)-phenyl]-pyrimidin-4-yl}-[2-(4-methoxy-2-methyl-indol-1-yl)-ethyl]-amine]",–,–,8.40,6.63
"COc1ccc(F)c2c1cc(C#N)n2CCNc1cc(-c2cccc(CC(=O)O)c2)ncn1 [Example 1004, (3-{6-[2-(2-Cyano-7-fluoro-4-methoxy-indol-1-yl)-ethylamino]-pyrimidin-4-yl}-phenyl)-acetic acid]",6.93,6.84,–,–
"COc1cc2[nH]ncc2cc1-c1cc(NCCn2c(C#N)cc3c(OC)ccc(F)c32)ncn1 [Example 981, 7-Fluoro-4-methoxy-1-{2-[6-(6-methoxy-1H-indazol-5-yl)-pyrimidin-4-ylamino]-ethyl}-1H-indole-2-carbonitrile]",7.23,7.24,–,–
"COc1cc(F)cc2c1cc(C)n2CCNc1cc(-c2ccc(-c3ncno3)cc2)ncn1 [compound 184, [2-(6-Fluoro-4-methoxy-2-methyl-indol-1-yl)-ethyl]-[6-(4-[1,2,4]oxadiazol-5-yl-phenyl)-pyrimidin-4-yl]-amine]",–,–,7.82,6.77
"CCOc1cc(-c2cc(NCCn3c(C)cc4c(OC)ccc(F)c43)ncn2)sc1C(=O)NS(C)(=O)=O [Example 1022, N-(3-Ethoxy-5-{6-[2-(7-fluoro-4-methoxy-2-methyl-indol-1-yl)-ethylamino]-pyrimidin-4-yl}-thiophene-2-carbonyl)-methanesulfonamide]",8.40,7.74,–,–
COc1cc(F)cc2c1cc(C)n2CCNc1cc(-c2ccc(-c3nc(C)no3)cc2)ncn1 [compound 301],–,–,6.99,6.45
"COc1ccc(F)c2c1cc(C)n2CCNc1cc(-c2ccc3c(c2)CN(C)C3=O)ncn1 [compound 204, 5-{6-[2-(7-Fluoro-4-methoxy-2-methyl-indol-1-yl)-ethylamino]-pyrimidin-4-yl}-2-methyl-2,3-dihydro-isoindol-1-one]",–,–,7.51,6.74
"CCCCOc1cc(-c2cc(NCCn3c(C)cc4c(OC)cc(Cl)c(F)c43)ncn2)ccc1C(=O)O [Example 884, 2-Butoxy-4-{6-[2-(6-chloro-7-fluoro-4-methoxy-2-methyl-indol-1-yl)-ethylamino]-pyrimidin-4-yl}benzoic acid]",8.00,7.08,–,–
"COc1ccc(F)c2c1cc(C#N)n2CCNc1cc(-c2ccc(-c3cnc[nH]3)cc2)ncn1 [Example 829, 7-Fluoro-1-(2-{6-[4-(3H-imidazol-4-yl)-phenyl]-pyrimidin-4-ylamino}-ethyl)-4-methoxy-1H-indole-2-carbonitrile]",7.82,7.92,–,–
"COc1ccc(F)c2c1cc(C#N)n2CCNc1cc(-c2ccc(OCCO)cc2)ncn1 [Example 964, 7-Fluoro-1-(2-{6-[4-(2-hydroxy-ethoxy)-phenyl]-pyrimidin-4-ylamino}-ethyl)-4-methoxy-1H-indole-2-carbonitrile]",7.39,7.66,–,–
"CNc1nnc(-c2ccc(-c3cc(NCCn4c(C)cc5c(C)ccc(F)c54)ncn3)cc2)s1 [compound 324, [2-(7-Fluoro-2,4-dimethyl-indol-1-yl)-ethyl]-{6-[4-(5-methylamino-[1,3,4]thiadiazol-2-yl)-phenyl]-pyrimidin-4-yl}-amine]",–,–,8.40,7.64
"Cc1cc2c(F)ccc(F)c2n1CCNc1cc(-c2ccc(C(=O)O)c(CCC(C)C)c2)ncn1 [compound 367, 4-{6-[2-(4,7-Difluoro-2-methyl-indol-1-yl)-ethylamino]-pyrimidin-4-yl}-2-(3-methyl-butyl)-benzoic acid]",–,–,7.85,6.02
"CCOc1cc(-c2cc(NCCn3c(C#N)cc4c(C)ccc(F)c43)ncn2)sc1C(=O)O [Example 891, 5-{6-[2-(2-Cyano-7-fluoro-4-methyl-indol-1-yl)-ethylamino]-pyrimidin-4-yl}-3-ethoxy-thiophene-2-carboxylic acid]",8.22,8.52,–,–
"CCOc1cc(-c2cc(NCCn3c(C#N)cc4c(OC)ccc(F)c43)ncn2)sc1C(=O)NO [Example 1030, 5-{6-[2-(2-Cyano-7-fluoro-4-methoxy-indol-1-yl)-ethylamino]-pyrimidin-4-yl}-3-ethoxy-thiophene-2-carboxylic acid hydroxyamide]",7.82,8.52,–,–

# Source: patent US12011444B2, “N-substituted indole derivatives as PGE2 receptor modulators” (Idorsia Pharmaceuticals Ltd, priority 2015, dated 2024)
